Reference: patent EP0752872B1, “NADH OXIDASE AS A TARGET IN DIAGNOSIS AND THERAPY” (Morré, D. James, priority 1994, dated 1995)

System: plasma membrane NADH oxidase
Assay: Spectrophotometric NADH oxidase assay, rat liver plasma membranes (normal cells)
Assay type: biochemical
Description: Purification of plasma membranes from rat liver. A 5000 x g pellet from the preparation of Golgi apparatus (Morré (1971) Meth. Enzymol. 22, 130-148) was the starting material. The fluffy layer which contains the Golgi apparatus fraction was mixed, withdrawn and excluded from the plasma membrane preparations. Cold 1 mM NaHCO3 (5 ml) was added to each tube and the friable yellow-brown upper part of the pellet was resuspended with a pen-brush, leaving the reddish tightly packed bottom part of the pellet undisturbed. The resuspended material was homogenized in aliquots of 5 ml each in a 30 ml stainless steel homogenizer (Duragrind) 20 times by hand. The homogenates were combined, diluted with cold 1 mM NaHCO3 (1:1 dilution), and centrifuged at 6000 x g in a HB rotor for 15 min. The supernatant was discarded and the pellet was used for the two-phase separation (Morré & Morré (1989) BioTechniques 7:946-958).
The two-phase system contained 6.4% (w/w) Dextran T-500 (Pharmacia), 6.4% (w/w) polyethylene glycol) 3350 (Fisher), and 5 mM potassium phosphate buffer (pH 7.2) (Morré & Morré, 1989, supra). The homogenate (1 g) was added to the two-phase system and the weight of the system was brought to 8 g with distilled water. The tubes were inverted vigorously for 40 times in the cold (4°C). The phases were separated by centrifugation at 750 rpm (150 x g) in a Sorvall HB 4 rotor for 5 min. The upper phases were carefully withdrawn with a pasteur pipette, divided in half and transferred into 40 ml plastic centrifuge tubes and diluted with cold 1 mM NaHCO3. The purified plasma membranes were collected by centrifugation at 10,000 x g in a HB rotor for 30 min. Plasma membrane pellets were resuspended in 50 mM Tris-Mes buffer (pH 7.2) and stored at -70°C. Proteins were determined using the bicinchoninic acid (BCA) assay (Smith et al. (1985) Anal. Biochem. […]: 76-85) with bovine serum albumin as standard.
Spectrophometric assay of NADH oxidase. NADH oxidase activity was determined as the disappearance of NADH measured at 340 nm in a reaction mixture containing 25 mM Tris-MES buffer (pH 7.2), 1 mM KCN to inhibit the low levels of contaminating mitochondrial oxidase activity, and 150 µM NADH at 37°C with constant stirring. Activity was measured using a Hitachi U3210 spectrophotometer with continuous recording over two intervals of 5 min each. A millimolar extinction coefficient of 6.22 was used to determine specific activity.

COc1cc(CNC(=O)CCCC/C=C/C(C)C)ccc1O [capsaicin]
effect on NADH oxidase activity (in words): no effect
